Test results reported in US20120029187A1, “HALOALKYLSULFONANILIDE DERIVATIVE” (Nissan Chemical Industries, Ltd., priority 2009, published 2012).

What was measured:
Assay type in all cases: in vivo
large crabgrass [1] = assay: Test Example 4: herbicidal effect in foliage treatment; details: dose 3.2 g/a
Method in brief: (§1)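 Post-emergence foliar spray of water-diluted emulsifiable concentrate at predetermined doses (g per are), applied to plants 14 days after sowing in sterile diluvial soil (greenhouse, 25 to 30° C). Visual scale rating of effect taken 3 weeks later.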

redroot pigweed [2] = assay: as above; details: dose 3.2 g/a
Method in brief: as §1

posumbu knotweed [3] = assay: as above; details: dose 3.2 g/a
Method in brief: as §1

barnyardgrass [4] = assay: as above; details: dose 3.2 g/a
Method in brief: as §1

giant foxtail [5] = assay: as above; details: dose 3.2 g/a
Method in brief: as §1

common ragweed [6] = assay: as above; details: dose 3.2 g/a
Method in brief: as §1

Italian ryegrass [7] = assay: as above; details: dose 3.2 g/a
Method in brief: as §1

common lambsquater [8] = assay: as above; details: dose 3.2 g/a
Method in brief: as §1

velvetleaf [9] = assay: as above; details: dose 3.2 g/a
Method in brief: as §1

beadstraw = assay: as above; details: dose 3.2 g/a
Method in brief: as §1

common chickweed [10] = assay: as above; details: dose 3.2 g/a
Method in brief: as §1

water foxtail [11] = assay: as above; details: dose 3.2 g/a
Method in brief: as §1

transplanted rice = assay: Test Example 1: preemergence treatment under submerged conditions, effect on crop; details: dose 2.52 g/a
Method in brief: (§2)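 Alluvial soil flooded to 4 cm depth; barnyardgrass, bulrush and ducksalad sown and 2.5-leaf rice seedlings transplanted. Same day, water-diluted emulsifiable concentrates applied to the water surface at set doses (g/a). Kept at 25–30 °C in greenhouse; effects scored 0–5 by mortality after three weeks.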

ducksalad [12] = assay: Test Example 2: herbicidal effects during the vegetation period under submerged conditions; details: treatment during the vegetation period under submerged conditions; dose 2.52 g/a
Method in brief: (§3)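 Barnyardgrass, bulrush and ducksalad were co-sown in alluvial soil flooded to 4 cm and grown in a greenhouse at 25 to 30° C. At the 1- or 2-leaf stage, water-diluted emulsifiable concentrates went onto the water surface at set doses (g/a). Herbicidal effect was scored three weeks later on a graded scale.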

bulrush [13] = assay: as above; details: treatment during the vegetation period under submerged conditions; dose 2.52 g/a
Method in brief: as §3

barnyardgrass [14] = assay: as above; details: treatment during the vegetation period under submerged conditions; dose 2.52 g/a
Method in brief: as §3

ducksalad [15] = assay: Test Example 1: herbicidal effects in preemergence treatment under submerged conditions; details: dose 2.52 g/a
Method in brief: as §2

bulrush [16] = assay: as above; details: dose 2.52 g/a
Method in brief: as §2

barnyardgrass [17] = assay: as above; details: dose 2.52 g/a
Method in brief: as §2

large crabgrass [18] = assay: Test Example 3: herbicidal effects in soil treatment; details: dose 3.2 g/a
Method in brief: (§4)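 Seeds were sown in sterilized diluvial soil and covered with about 1.5 cm of soil. Compounds, formulated as emulsifiable concentrates and diluted with water, were sprayed evenly over the soil surface at set doses in g/a. Herbicidal effect was scored on a rating scale three weeks later.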

redroot pigweed [19] = assay: as above; details: dose 3.2 g/a
Method in brief: as §4

posumbu knotweed [20] = assay: as above; details: dose 3.2 g/a
Method in brief: as §4

barnyardgrass [21] = assay: as above; details: dose 3.2 g/a
Method in brief: as §4

giant foxtail [22] = assay: as above; details: dose 3.2 g/a
Method in brief: as §4

common ragweed [23] = assay: as above; details: dose 3.2 g/a
Method in brief: as §4

Italian ryegrass [24] = assay: as above; details: dose 3.2 g/a
Method in brief: as §4

common lambsquater [25] = assay: as above; details: dose 3.2 g/a
Method in brief: as §4

velvetleaf [26] = assay: as above; details: dose 3.2 g/a
Method in brief: as §4

common chickweed [27] = assay: as above; details: dose 3.2 g/a
Method in brief: as §4

water foxtail [28] = assay: as above; details: dose 3.2 g/a
Method in brief: as §4

[29] = three weeks after the application

CCOC(=O)N(c1ccccc1CN1COC2(CCCCC2)CC1=O)S(=O)(=O)C(F)(F)F [II-68]
D: large crabgrass, herbicidal effect (large crabgrass [1]; three weeks after application): 4 (mortality of at least 70% and less than 90%)
K: redroot pigweed, herbicidal effect (redroot pigweed [2]; three weeks after application): 2 (mortality of at least 20% and less than 40%)
M: posumbu knotweed, herbicidal effect (posumbu knotweed [3]; three weeks after application): 2 (mortality of at least 20% and less than 40%)
A: barnyardgrass, herbicidal effect (barnyardgrass [4]; three weeks after application): 5 (mortality of 90% or above (nearly complete death))
E: giant foxtail, herbicidal effect (giant foxtail [5]; three weeks after application): 5 (mortality of 90% or above (nearly complete death))
J: common ragweed, herbicidal effect (common ragweed [6]; three weeks after application): 3 (mortality of at least 40% and less than 70%)
H: Italian ryegrass, herbicidal effect (Italian ryegrass [7]; three weeks after application): 1 (mortality of at least 5% and less than 20%)
L: common lambsquater, herbicidal effect (common lambsquater [8]; three weeks after application): 4 (mortality of at least 70% and less than 90%)
I: velvetleaf, herbicidal effect (velvetleaf [9]; three weeks after application): 4 (mortality of at least 70% and less than 90%)
O: beadstraw, herbicidal effect (beadstraw; three weeks after application): 3 (mortality of at least 40% and less than 70%)
N: common chickweed, herbicidal effect (common chickweed [10]; three weeks after application): 4 (mortality of at least 70% and less than 90%)
G: water foxtail, herbicidal effect (water foxtail [11]; three weeks after application): 3 (mortality of at least 40% and less than 70%)
a: transplanted rice, effect on crop (evaluation scale 0-5) (transplanted rice): 3 (mortality of at least 40% and less than 70%)
C: ducksalad, herbicidal effect (evaluation scale 0-5) (ducksalad [12]): 5 (mortality of 90% or above (nearly complete death))
B: bulrush, herbicidal effect (evaluation scale 0-5) (bulrush [13]): 5 (mortality of 90% or above (nearly complete death))
A: barnyardgrass, herbicidal effect (evaluation scale 0-5) (barnyardgrass [14]): 5 (mortality of 90% or above (nearly complete death))
C: ducksalad, herbicidal effect (evaluation scale 0-5) (ducksalad [15]): 5 (mortality of 90% or above (nearly complete death))
B: bulrush, herbicidal effect (evaluation scale 0-5) (bulrush [16]): 5 (mortality of 90% or above (nearly complete death))
A: barnyardgrass, herbicidal effect (evaluation scale 0-5) (barnyardgrass [17]): 5 (mortality of 90% or above (nearly complete death))
D: large crabgrass, herbicidal effect (evaluation scale 0-5) (large crabgrass [18]): 5 (mortality of 90% or above (nearly complete death))
K: redroot pigweed, herbicidal effect (evaluation scale 0-5) (redroot pigweed [19]): 3 (mortality of at least 40% and less than 70%)
M: posumbu knotweed, herbicidal effect (evaluation scale 0-5) (posumbu knotweed [20]): 5 (mortality of 90% or above (nearly complete death))
A: barnyardgrass, herbicidal effect (evaluation scale 0-5) (barnyardgrass [21]): 5 (mortality of 90% or above (nearly complete death))
E: giant foxtail, herbicidal effect (evaluation scale 0-5) (giant foxtail [22]): 5 (mortality of 90% or above (nearly complete death))
J: common ragweed, herbicidal effect (evaluation scale 0-5) (common ragweed [23]): 2 (mortality of at least 20% and less than 40%)
H: Italian ryegrass, herbicidal effect (evaluation scale 0-5) (Italian ryegrass [24]): 5 (mortality of 90% or above (nearly complete death))
L: common lambsquater, herbicidal effect (evaluation scale 0-5) (common lambsquater [25]): 4 (mortality of at least 70% and less than 90%)
I: velvetleaf, herbicidal effect (evaluation scale 0-5) (velvetleaf [26]): 5 (mortality of 90% or above (nearly complete death))
N: common chickweed, herbicidal effect (evaluation scale 0-5) (common chickweed [27]): 4 (mortality of at least 70% and less than 90%)
G: water foxtail, herbicidal effect (evaluation scale 0-5) (water foxtail [28]): 5 (mortality of 90% or above (nearly complete death))

CCOC(=O)N(c1ccccc1CN1OCCOC1=O)S(=O)(=O)C(F)(F)F [III-2]
D: large crabgrass, herbicidal effect (large crabgrass [1]; [29]): 0 (mortality of less than 5% (almost ineffective))
K: redroot pigweed, herbicidal effect (redroot pigweed [2]; [29]): 3 (mortality of at least 40% and less than 70%)
M: posumbu knotweed, herbicidal effect (posumbu knotweed [3]; [29]): 4 (mortality of at least 70% and less than 90%)
A: barnyardgrass, herbicidal effect (barnyardgrass [4]; [29]): 4 (mortality of at least 70% and less than 90%)
E: giant foxtail, herbicidal effect (giant foxtail [5]; [29]): 0 (mortality of less than 5% (almost ineffective))
J: common ragweed, herbicidal effect (common ragweed [6]; [29]): 4 (mortality of at least 70% and less than 90%)
H: Italian ryegrass, herbicidal effect (Italian ryegrass [7]; [29]): 3 (mortality of at least 40% and less than 70%)
L: common lambsquater, herbicidal effect (common lambsquater [8]; [29]): 3 (mortality of at least 40% and less than 70%)
I: velvetleaf, herbicidal effect (velvetleaf [9]; [29]): 4 (mortality of at least 70% and less than 90%)
O: beadstraw, herbicidal effect (beadstraw; [29]): 3 (mortality of at least 40% and less than 70%)
N: common chickweed, herbicidal effect (common chickweed [10]; [29]): 3 (mortality of at least 40% and less than 70%)
G: water foxtail, herbicidal effect (water foxtail [11]; [29]): 5 (mortality of 90% or above (nearly complete death))
a: transplanted rice, effect on crop (evaluation scale 0-5) (transplanted rice): 0 (mortality of less than 5% (almost ineffective))
C: ducksalad, herbicidal effect (evaluation scale 0-5) (ducksalad [12]): 4 (mortality of at least 70% and less than 90%)
B: bulrush, herbicidal effect (evaluation scale 0-5) (bulrush [13]): 5 (mortality of 90% or above (nearly complete death))
A: barnyardgrass, herbicidal effect (evaluation scale 0-5) (barnyardgrass [14]): 3 (mortality of at least 40% and less than 70%)
C: ducksalad, herbicidal effect (evaluation scale 0-5) (ducksalad [15]): 5 (mortality of 90% or above (nearly complete death))
B: bulrush, herbicidal effect (evaluation scale 0-5) (bulrush [16]): 5 (mortality of 90% or above (nearly complete death))
A: barnyardgrass, herbicidal effect (evaluation scale 0-5) (barnyardgrass [17]): 4 (mortality of at least 70% and less than 90%)
herbicidal effect, D: large crabgrass (large crabgrass [18]): 0 (mortality of less than 5% (almost ineffective))
herbicidal effect, K: redroot pigweed (redroot pigweed [19]): 0 (mortality of less than 5% (almost ineffective))
herbicidal effect, M: posumbu knotweed (posumbu knotweed [20]): 4 (mortality of at least 70% and less than 90%)
herbicidal effect, A: barnyardgrass (barnyardgrass [21]): 4 (mortality of at least 70% and less than 90%)
herbicidal effect, E: giant foxtail (giant foxtail [22]): 0 (mortality of less than 5% (almost ineffective))
herbicidal effect, J: common ragweed (common ragweed [23]): 0 (mortality of less than 5% (almost ineffective))
herbicidal effect, H: Italian ryegrass (Italian ryegrass [24]): 3 (mortality of at least 40% and less than 70%)
herbicidal effect, L: common lambsquater (common lambsquater [25]): 5 (mortality of 90% or above (nearly complete death))
herbicidal effect, I: velvetleaf (velvetleaf [26]): 5 (mortality of 90% or above (nearly complete death))
herbicidal effect, N: common chickweed (common chickweed [27]): 3 (mortality of at least 40% and less than 70%)
herbicidal effect, G: water foxtail (water foxtail [28]): 5 (mortality of 90% or above (nearly complete death))

CCOC(=O)N(c1ccccc1CN1OCC(C)OC1=O)S(=O)(=O)C(F)(F)F (stereo not drawn) [III-4]
D: large crabgrass, herbicidal effect (large crabgrass [1]; [29]): 3 (mortality of at least 40% and less than 70%)
K: redroot pigweed, herbicidal effect (redroot pigweed [2]; [29]): 0 (mortality of less than 5% (almost ineffective))
M: posumbu knotweed, herbicidal effect (posumbu knotweed [3]; [29]): 3 (mortality of at least 40% and less than 70%)
A: barnyardgrass, herbicidal effect (barnyardgrass [4]; [29]): 5 (mortality of 90% or above (nearly complete death))
E: giant foxtail, herbicidal effect (giant foxtail [5]; [29]): 4 (mortality of at least 70% and less than 90%)
J: common ragweed, herbicidal effect (common ragweed [6]; [29]): 4 (mortality of at least 70% and less than 90%)
H: Italian ryegrass, herbicidal effect (Italian ryegrass [7]; [29]): 1 (mortality of at least 5% and less than 20%)
L: common lambsquater, herbicidal effect (common lambsquater [8]; [29]): 1 (mortality of at least 5% and less than 20%)
I: velvetleaf, herbicidal effect (velvetleaf [9]; [29]): 3 (mortality of at least 40% and less than 70%)
O: beadstraw, herbicidal effect (beadstraw; [29]): 3 (mortality of at least 40% and less than 70%)
N: common chickweed, herbicidal effect (common chickweed [10]; [29]): 5 (mortality of 90% or above (nearly complete death))
G: water foxtail, herbicidal effect (water foxtail [11]; [29]): 5 (mortality of 90% or above (nearly complete death))
a: transplanted rice, effect on crop (evaluation scale 0-5) (transplanted rice): 0 (mortality of less than 5% (almost ineffective))
C: ducksalad, herbicidal effect (evaluation scale 0-5) (ducksalad [12]): 5 (mortality of 90% or above (nearly complete death))
B: bulrush, herbicidal effect (evaluation scale 0-5) (bulrush [13]): 5 (mortality of 90% or above (nearly complete death))
A: barnyardgrass, herbicidal effect (evaluation scale 0-5) (barnyardgrass [14]): 5 (mortality of 90% or above (nearly complete death))
C: ducksalad, herbicidal effect (evaluation scale 0-5) (ducksalad [15]): 5 (mortality of 90% or above (nearly complete death))
B: bulrush, herbicidal effect (evaluation scale 0-5) (bulrush [16]): 5 (mortality of 90% or above (nearly complete death))
A: barnyardgrass, herbicidal effect (evaluation scale 0-5) (barnyardgrass [17]): 5 (mortality of 90% or above (nearly complete death))
herbicidal effect, D: large crabgrass (large crabgrass [18]): 5 (mortality of 90% or above (nearly complete death))
herbicidal effect, K: redroot pigweed (redroot pigweed [19]): 3 (mortality of at least 40% and less than 70%)
herbicidal effect, M: posumbu knotweed (posumbu knotweed [20]): 5 (mortality of 90% or above (nearly complete death))
herbicidal effect, A: barnyardgrass (barnyardgrass [21]): 5 (mortality of 90% or above (nearly complete death))
herbicidal effect, E: giant foxtail (giant foxtail [22]): 5 (mortality of 90% or above (nearly complete death))
herbicidal effect, J: common ragweed (common ragweed [23]): 3 (mortality of at least 40% and less than 70%)
herbicidal effect, H: Italian ryegrass (Italian ryegrass [24]): 5 (mortality of 90% or above (nearly complete death))
herbicidal effect, L: common lambsquater (common lambsquater [25]): 5 (mortality of 90% or above (nearly complete death))
herbicidal effect, I: velvetleaf (velvetleaf [26]): 5 (mortality of 90% or above (nearly complete death))
herbicidal effect, N: common chickweed (common chickweed [27]): 4 (mortality of at least 70% and less than 90%)
herbicidal effect, G: water foxtail (water foxtail [28]): 5 (mortality of 90% or above (nearly complete death))
